Experiments:
Rho kinase 1 = Rho kinase 1 (Homo sapiens, UniProt Q13464); assay: In vitro Rho kinase inhibitory activity assay (ADP-Glo kit, Myelin Basic Protein substrate); assay type: biochemical; conditions: 10 μM ATP, 25° C., read-out: ROCK1 inhibitory activity (Ki, range of activity)
Method: (§1) The effectiveness of compounds of the present invention to inhibit Rho kinase activity can be determined in a 10 μl assay containing 40 mM Tris pH7.5, 20 mM MgCl2 0.1 mg/ml BSA, 50 μM DTT and 2.5 μM peptide substrate (Myelin Basic Protein) using an ADP-Glo kit (Promega). Compounds were dissolved in DMSO such that the final concentration of DMSO was 1% in the assay. All reactions/incubations are performed at 25° C. Compound (2 ul) and either Rho kinase 1 or 2 (4 μl) were mixed and incubated for 30 mins. Reactions were initiated by addition of ATP (4 μl) such that the final concentration of ATP in the assay was 10 μM. After a 1 hour incubation 10 μl of ADP-Glo Reagent was added and after a further 45 minute incubation 20 ul of Kinase Detection Buffer was added and the mixture incubated for a further 30 minutes. The luminescent signal was measured on a luminometer. […] Compounds were tested in dose-response format and the inhibition of kinase activity was calculated at each concentration of compound. To determine the IC50 (concentration of compound required to inhibit 50% of the enzyme activity) data were fit to a plot of % inhibition vs Log10 compound concentration using a sigmoidal fit with a variable slope and fixing the maximum to 100% and the minimum to 0%. To determine the Ki values the Cheng-Prusoff equation was utilized (Ki=IC50/(1+[S]/Km).

Rho kinase 2 = Rho kinase 2 (Homo sapiens, UniProt O75116); assay: as above; assay type: biochemical; conditions: 10 μM ATP, 25° C., read-out: ROCK2 inhibitory activity (Ki, range of activity)
Method: as §1

Rho kinase 2, sequence (O75116 whole entry): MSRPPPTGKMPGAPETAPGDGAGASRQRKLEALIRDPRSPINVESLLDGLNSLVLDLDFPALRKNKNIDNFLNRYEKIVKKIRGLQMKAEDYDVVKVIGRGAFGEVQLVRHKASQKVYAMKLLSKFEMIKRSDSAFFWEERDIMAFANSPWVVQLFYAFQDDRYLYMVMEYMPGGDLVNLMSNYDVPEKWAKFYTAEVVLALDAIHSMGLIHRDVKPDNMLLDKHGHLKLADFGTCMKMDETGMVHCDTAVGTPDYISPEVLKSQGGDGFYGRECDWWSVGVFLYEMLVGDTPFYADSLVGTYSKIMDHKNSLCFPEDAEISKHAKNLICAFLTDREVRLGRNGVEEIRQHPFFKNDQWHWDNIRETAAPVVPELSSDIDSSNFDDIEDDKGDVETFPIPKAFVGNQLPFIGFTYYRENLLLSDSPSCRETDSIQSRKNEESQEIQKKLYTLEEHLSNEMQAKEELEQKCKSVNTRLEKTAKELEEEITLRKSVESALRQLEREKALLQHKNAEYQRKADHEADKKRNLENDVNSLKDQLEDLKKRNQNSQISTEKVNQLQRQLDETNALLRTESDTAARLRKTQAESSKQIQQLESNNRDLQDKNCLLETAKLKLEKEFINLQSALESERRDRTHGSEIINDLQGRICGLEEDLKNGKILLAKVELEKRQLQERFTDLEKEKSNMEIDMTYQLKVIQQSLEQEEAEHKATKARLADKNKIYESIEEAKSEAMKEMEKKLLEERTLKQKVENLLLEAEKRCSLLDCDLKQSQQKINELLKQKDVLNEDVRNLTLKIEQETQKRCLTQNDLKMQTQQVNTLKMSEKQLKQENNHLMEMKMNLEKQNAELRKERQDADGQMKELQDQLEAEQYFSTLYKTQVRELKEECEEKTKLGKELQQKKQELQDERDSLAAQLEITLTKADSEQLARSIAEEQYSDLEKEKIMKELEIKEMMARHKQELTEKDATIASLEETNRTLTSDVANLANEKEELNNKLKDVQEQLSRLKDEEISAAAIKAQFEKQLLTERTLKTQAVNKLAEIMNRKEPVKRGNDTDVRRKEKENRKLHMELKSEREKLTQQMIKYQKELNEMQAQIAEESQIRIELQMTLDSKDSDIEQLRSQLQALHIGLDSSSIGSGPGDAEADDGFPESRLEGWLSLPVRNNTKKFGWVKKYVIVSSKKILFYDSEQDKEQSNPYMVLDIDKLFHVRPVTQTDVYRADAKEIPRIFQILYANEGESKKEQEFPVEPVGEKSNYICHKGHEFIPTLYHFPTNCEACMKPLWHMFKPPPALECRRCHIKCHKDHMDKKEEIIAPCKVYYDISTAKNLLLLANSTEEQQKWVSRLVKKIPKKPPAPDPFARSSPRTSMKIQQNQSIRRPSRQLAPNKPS
Rho kinase 1, sequence (Q13464 whole entry): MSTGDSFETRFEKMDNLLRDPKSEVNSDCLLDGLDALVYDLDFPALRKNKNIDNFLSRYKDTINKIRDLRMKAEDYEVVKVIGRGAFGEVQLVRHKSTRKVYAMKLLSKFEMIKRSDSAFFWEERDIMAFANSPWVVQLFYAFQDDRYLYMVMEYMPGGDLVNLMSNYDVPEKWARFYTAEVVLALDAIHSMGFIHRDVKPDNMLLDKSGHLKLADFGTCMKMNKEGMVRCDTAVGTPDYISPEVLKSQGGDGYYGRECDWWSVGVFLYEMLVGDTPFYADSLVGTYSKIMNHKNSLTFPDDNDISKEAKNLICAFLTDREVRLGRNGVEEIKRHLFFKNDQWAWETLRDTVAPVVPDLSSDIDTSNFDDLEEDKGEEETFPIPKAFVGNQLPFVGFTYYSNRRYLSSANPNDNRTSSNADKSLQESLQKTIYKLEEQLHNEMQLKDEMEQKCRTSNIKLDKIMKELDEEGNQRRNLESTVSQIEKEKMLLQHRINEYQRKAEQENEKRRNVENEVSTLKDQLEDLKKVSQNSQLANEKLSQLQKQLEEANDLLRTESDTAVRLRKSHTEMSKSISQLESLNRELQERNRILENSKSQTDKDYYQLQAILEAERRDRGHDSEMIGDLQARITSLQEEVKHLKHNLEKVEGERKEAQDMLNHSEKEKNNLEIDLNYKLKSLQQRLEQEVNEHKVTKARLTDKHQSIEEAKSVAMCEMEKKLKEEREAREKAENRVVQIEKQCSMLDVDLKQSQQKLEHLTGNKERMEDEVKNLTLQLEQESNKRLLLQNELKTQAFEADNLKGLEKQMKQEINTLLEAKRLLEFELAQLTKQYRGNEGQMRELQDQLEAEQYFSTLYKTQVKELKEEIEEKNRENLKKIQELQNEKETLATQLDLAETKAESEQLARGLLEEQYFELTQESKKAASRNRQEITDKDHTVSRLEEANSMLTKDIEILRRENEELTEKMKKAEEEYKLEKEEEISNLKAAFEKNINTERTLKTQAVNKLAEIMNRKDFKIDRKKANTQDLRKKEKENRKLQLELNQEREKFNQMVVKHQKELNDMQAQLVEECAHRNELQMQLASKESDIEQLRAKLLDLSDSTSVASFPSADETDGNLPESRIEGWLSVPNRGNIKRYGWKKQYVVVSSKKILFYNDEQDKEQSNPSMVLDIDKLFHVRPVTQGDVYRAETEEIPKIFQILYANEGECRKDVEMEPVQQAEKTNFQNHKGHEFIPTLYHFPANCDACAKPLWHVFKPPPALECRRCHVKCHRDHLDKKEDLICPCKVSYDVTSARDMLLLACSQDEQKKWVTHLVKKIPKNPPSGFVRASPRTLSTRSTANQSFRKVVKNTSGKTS

Row | Ki (Rho kinase 1) [nM] | Ki (Rho kinase 2) [nM] | Compound
1 | < 50 | < 50 | CCOC(=O)c1cc2n(n1)C(c1ccc(Cl)cc1F)C(C(=O)Nc1ccc3[nH]ncc3c1)=C(C)N2 (single isomer, unassigned) [Example 7B, ethyl 6-((1H-indazol-5-yl)carbamoyl)-7-(4-chloro-2-fluorophenyl)-5-methyl-4,7-dihydropyrazolo[1,5-a]pyrimidine-2-carboxylate]
2 | < 50 | < 50 | CC1=C(C(=O)Nc2ccc3[nH]ncc3c2)C(c2ccc(F)cc2)n2nnnc2N1 (single isomer, unassigned) [Example 23A, 7-(4-fluorophenyl)-N-(1H-indazol-5-yl)-5-methyl-4,7-dihydrotetrazolo[1,5-a]pyrimidine-6-carboxamide]
3 | 50 to 500 | 50 to 500 | CC1=C(C(=O)Nc2ccc3[nH]ncc3c2)C(c2ccc(F)cc2)n2nnnc2N1 (single isomer, unassigned) [Example 23B, 7-(4-fluorophenyl)-N-(1H-indazol-5-yl)-5-methyl-4,7-dihydrotetrazolo[1,5-a]pyrimidine-6-carboxamide]
4 | < 50 | < 50 | CC1=C(C(=O)Nc2ccc3[nH]ncc3c2)C(c2ccc(Cl)cc2)n2nnnc2N1 (single isomer, unassigned) [Example 24A, 7-(4-chlorophenyl)-N-(1H-indazol-5-yl)-5-methyl-4,7-dihydrotetrazolo[1,5-a]pyrimidine-6-carboxamide]
5 | 50 to 500 | 50 to 500 | CC1=C(C(=O)Nc2ccc3[nH]ncc3c2)C(c2ccc(Cl)cc2)n2nnnc2N1 (single isomer, unassigned) [Example 24B, 7-(4-chlorophenyl)-N-(1H-indazol-5-yl)-5-methyl-4,7-dihydrotetrazolo[1,5-a]pyrimidine-6-carboxamide]
6 | < 50 | < 50 | CC1=C(C(=O)Nc2ccc3[nH]ncc3c2)C(c2ccc(C(F)(F)F)c(F)c2)n2nnnc2N1 (single isomer, unassigned) [Example 25A, 7-(3-fluoro-4-(trifluoromethyl)phenyl)-N-(1H-indazol-5-yl)-5-methyl-4,7-dihydrotetrazolo[1,5-a]pyrimidine-6-carboxamide]
7 | 50 to 500 | 50 to 500 | CC1=C(C(=O)Nc2ccc3[nH]ncc3c2)C(c2ccc(C(F)(F)F)c(F)c2)n2nnnc2N1 (single isomer, unassigned) [Example 25B, 7-(3-fluoro-4-(trifluoromethyl)phenyl)-N-(1H-indazol-5-yl)-5-methyl-4,7-dihydrotetrazolo[1,5-a]pyrimidine-6-carboxamide]
8 | < 50 | < 50 | CC1=C(C(=O)Nc2ccc3[nH]ncc3c2)C(c2ccc(C(F)(F)F)cc2F)n2nnnc2N1 (single isomer, unassigned) [Example 26A, 7-(2-fluoro-4-(trifluoromethyl)phenyl)-N-(1H-indazol-5-yl)-5-methyl-4,7-dihydrotetrazolo[1,5-a]pyrimidine-6-carboxamide]
9 | 50 to 500 | 50 to 500 | CC1=C(C(=O)Nc2ccc3[nH]ncc3c2)C(c2ccc(C(F)(F)F)cc2F)n2nnnc2N1 (single isomer, unassigned) [Example 26B, 7-(2-fluoro-4-(trifluoromethyl)phenyl)-N-(1H-indazol-5-yl)-5-methyl-4,7-dihydrotetrazolo[1,5-a]pyrimidine-6-carboxamide]
10 | < 50 | < 50 | CC1=C(C(=O)Nc2ccc3[nH]ncc3c2)C(c2ccc(C(F)(F)F)cc2)n2nnnc2N1 (single isomer, unassigned) [Example 27A, N-(1H-indazol-5-yl)-5-methyl-7-(4-(trifluoromethyl)phenyl)-4,7-dihydrotetrazolo[1,5-a]pyrimidine-6-carboxamide]
11 | 50 to 500 | 50 to 500 | CC1=C(C(=O)Nc2ccc3[nH]ncc3c2)C(c2ccc(C(F)(F)F)cc2)n2nnnc2N1 (single isomer, unassigned) [Example 27B, N-(1H-indazol-5-yl)-5-methyl-7-(4-(trifluoromethyl)phenyl)-4,7-dihydrotetrazolo[1,5-a]pyrimidine-6-carboxamide]
12 | > 500 | > 500 | CC1=C(C(=O)Nc2ccc3[nH]ncc3c2)C(c2ccc(Cl)nc2)n2nc(C(F)(F)F)cc2N1 (single isomer, unassigned) [Example 32A, 7-(6-chloropyridin-3-yl)-N-(1H-indazol-5-yl)-5-methyl-2-(trifluoromethyl)-4,7-dihydropyrazolo[1,5-a]pyrimidine-6-carboxamide]
13 | < 50 | < 50 | CC1=C(C(=O)Nc2ccc3[nH]ncc3c2)C(c2ccc(Cl)nc2)n2nc(C(F)(F)F)cc2N1 (single isomer, unassigned) [Example 32B, 7-(6-chloropyridin-3-yl)-N-(1H-indazol-5-yl)-5-methyl-2-(trifluoromethyl)-4,7-dihydropyrazolo[1,5-a]pyrimidine-6-carboxamide]
14 | < 50 | < 50 | CC1=C(C(=O)Nc2cc3cn[nH]c3cc2F)C(c2ccc(C(F)(F)F)c(F)c2)n2nnnc2N1 (single isomer, unassigned) [Example 40A, N-(6-fluoro-1H-indazol-5-yl)-7-(3-fluoro-4-(trifluoromethyl)phenyl)-5-methyl-4,7-dihydrotetrazolo[1,5-a]pyrimidine-6-carboxamide]
15 | 50 to 500 | 50 to 500 | CC1=C(C(=O)Nc2cc3cn[nH]c3cc2F)C(c2ccc(C(F)(F)F)c(F)c2)n2nnnc2N1 (single isomer, unassigned) [Example 40B, N-(6-fluoro-1H-indazol-5-yl)-7-(3-fluoro-4-(trifluoromethyl)phenyl)-5-methyl-4,7-dihydrotetrazolo[1,5-a]pyrimidine-6-carboxamide]
16 | > 500 | 50 to 500 | CC1=C(C(=O)Nc2ccc3cnccc3c2)C(c2ccc(C(F)(F)F)cc2)n2nc(CO)cc2N1 (single isomer, unassigned) [Example 43A, 2-(hydroxymethyl)-N-(isoquinolin-6-yl)-5-methyl-7-(4-(trifluoromethyl)phenyl)-4,7-dihydropyrazolo[1,5-a]pyrimidine-6-carboxamide]
17 | < 50 | < 50 | CC1=C(C(=O)Nc2ccc3cnccc3c2)C(c2ccc(C(F)(F)F)cc2)n2nc(CO)cc2N1 (single isomer, unassigned) [Example 43B, 2-(hydroxymethyl)-N-(isoquinolin-6-yl)-5-methyl-7-(4-(trifluoromethyl)phenyl)-4,7-dihydropyrazolo[1,5-a]pyrimidine-6-carboxamide]
18 | < 50 | < 50 | CC1=C(C(=O)Nc2ccc3cnccc3c2)C(C2Cc3ccccc3C2)n2nc(CO)cc2N1 (single isomer, unassigned) [Example 60A, 7-(2,3-dihydro-1H-inden-2-yl)-2-(hydroxymethyl)-N-(isoquinolin-6-yl)-5-methyl-4,7-dihydropyrazolo[1,5-a]pyrimidine-6-carboxamide]
19 | 50 to 500 | 50 to 500 | CC1=C(C(=O)Nc2ccc3cnccc3c2)C(C2Cc3ccccc3C2)n2nc(CO)cc2N1 (single isomer, unassigned) [Example 60B, 7-(2,3-dihydro-1H-inden-2-yl)-2-(hydroxymethyl)-N-(isoquinolin-6-yl)-5-methyl-4,7-dihydropyrazolo[1,5-a]pyrimidine-6-carboxamide]
20 | < 50 | < 50 | CC1=C(C(=O)Nc2ccc3cnccc3c2)C(c2ccc(Br)cc2)n2nc(CO)cc2N1 (single isomer, unassigned) [Example 61A, 7-(4-bromophenyl)-2-(hydroxymethyl)-N-(isoquinolin-6-yl)-5-methyl-4,7-dihydropyrazolo[1,5-a]pyrimidine-6-carboxamide]
21 | 50 to 500 | 50 to 500 | CC1=C(C(=O)Nc2ccc3cnccc3c2)C(c2ccc(Br)cc2)n2nc(CO)cc2N1 (single isomer, unassigned) [Example 61B, 7-(4-bromophenyl)-2-(hydroxymethyl)-N-(isoquinolin-6-yl)-5-methyl-4,7-dihydropyrazolo[1,5-a]pyrimidine-6-carboxamide]
22 | < 50 | < 50 | CC1=C(C(=O)Nc2ccc3cnccc3c2)C(c2ccc(Cl)cc2)n2nc(CO)cc2N1 (single isomer, unassigned) [Example 62A, 7-(4-chlorophenyl)-2-(hydroxymethyl)-N-(isoquinolin-6-yl)-5-methyl-4,7-dihydropyrazolo[1,5-a]pyrimidine-6-carboxamide]
23 | 50 to 500 | 50 to 500 | CC1=C(C(=O)Nc2ccc3cnccc3c2)C(c2ccc(Cl)cc2)n2nc(CO)cc2N1 (single isomer, unassigned) [Example 62B, 7-(4-chlorophenyl)-2-(hydroxymethyl)-N-(isoquinolin-6-yl)-5-methyl-4,7-dihydropyrazolo[1,5-a]pyrimidine-6-carboxamide]
24 | < 50 | < 50 | CC1=C(C(=O)Nc2ccc3cnccc3c2)C(c2ccc(C(F)(F)F)c(F)c2)n2nc(CO)cc2N1 (single isomer, unassigned) [Example 65A, 7-(3-fluoro-4-(trifluoromethyl)phenyl)-2-(hydroxymethyl)-N-(isoquinolin-6-yl)-5-methyl-4,7-dihydropyrazolo[1,5-a]pyrimidine-6-carboxamide]

Reference: patent publication US10584128B2, “Bicyclic dihydropyrimidine-carboxamide derivatives as Rho-Kinase inhibitors” (CHIESI FARMACEUTICI S.p.A., priority 2016, dated 2020)
